Here are results for three molecules from publication PMC8187479, “Sugar phosphate activation of the stress sensor eIF2B” (Nature Communications, 2021).

For experiment [1], the target named is T1, eIF2B in WT HEK293T lysate (Homo sapiens, UniProt P49770+Q14232+Q9UI10).
T1 construct: endogenous in cells; host or cells: HEK293T (wild type) lysate
In words: GEF activity assay with WT HEK293T lysate. Type of experiment: biochemical. The procedure:
(§1) Bodipy-FL-GDP-loaded eIF2 was used as a substrate for recombinant eIF2B. The assay was performed in 384-well plates. Reactions were read on a SpectraMax i3x plate reader (Molecular Devices) using the instrument’s Softmax Pro software with the following parameters: plate temperature = 25 °C; excitation wavelength = 485 nm (15 nm width); emission wavelength = 535 nm (25 nm width); read duration = 30 min at 45 s intervals. Data were analyzed in Prism. GDP release half-lives were calculated by fitting single-exponential decay curves.
(§2) For unbiased screening, MIDAS metabolite libraries at 10 mM stock concentration were dispensed into wells of the assay plate using an Echo Acoustic Liquid Handler (Labcyte). In a final assay volume of 10 μL/well, the following conditions were kept constant: 25 nM Bodipy-FL-GDP-loaded eIF2, 4 nM phospho-eIF2, 0.1 mM GDP, 1 mg/mL BSA, 1 nM eIF2B, 10 μM metabolite. A single well was run for each metabolite. For targeted experiments with recombinant wild-type and mutant eIF2Bα, the following conditions were used: 50 nM Bodipy-FL-GDP-loaded eIF2, 0.1 mM GDP, 1 mg/ml BSA, 20 nM eIF2B. For targeted experiments with HEK293T lysates, the following conditions were used: 50 nM Bodipy-FL-GDP-loaded eIF2, 0.1 mM GDP, 1 mg/ml BSA, 0.1 or 0.3 mg/ml lysates.

For experiment [2], the target named is T2, eIF2B in eIF2Bα^E198K HEK293T lysate (Homo sapiens, UniProt P49770+Q14232+Q9UI10, E198K).
T2 construct: endogenous in cells; host or cells: HEK293T, CRISPR knock-in eIF2Bα E198K (homozygous), lysate
Description: GEF activity assay with eIF2Bα E198K HEK293T lysate. The format is biochemical. The procedure: as §1, §2

The target of experiment [3] is T3, eIF2B decamer in WT HEK293T lysate (Homo sapiens, UniProt P49770+Q14232+Q9UI10).
T3 construct: endogenous in cells; host or cells: HEK293T (wild type) lysate
Description: Sucrose gradient centrifugation, eIF2B complex assembly, WT HEK293T lysate. Type of experiment: biochemical. Conditions: 400 mM KCl, 5–20% sucrose gradient. The protocol:
(§3) WT or eIF2Bα mutant HEK293T cells were harvested and lysed in 50 mM HEPES, 400 mM KCl, 1 mM DTT, 4 mM Mg(OAc)2, pH 7.5 + 0.5% Triton-X-100 + EDTA-free protease inhibitor cocktail (Roche) on ice for 30 min. Lysates were cleared by centrifugation at 48,000 × g, 4 °C for 30 min. 100 μL of each cleared lysate was loaded onto a 5–20% sucrose gradient prepared in a 13 × 51 mm ultracentrifuge tube using a Gradient Station (Biocomp) and centrifuged in a SW55 Ti rotor at 152,000 × g, 4 °C for 12 h. After centrifugation, 24 × 200 μL fractions were manually collected from the top to bottom of each gradient. Each fraction was subjected to methanol/chloroform precipitation and SDS-PAGE followed by Western Blot with the indicated antibodies. Blots were imaged on a ChemiDoc MP (Bio-Rad), and band intensities were quantified using the instrument’s Image Lab software. Each value was then divided by total intensity obtained across all fractions to determine percent enrichment of each subunit in each fraction.

Experiment [4] has as its target T4, eIF2B decamer in eIF2Bα^E198K HEK293T lysate (Homo sapiens, UniProt P49770+Q14232+Q9UI10, E198K).
T4 construct: endogenous in cells; host or cells: HEK293T, CRISPR knock-in eIF2Bα E198K (homozygous), lysate
Description: Sucrose gradient centrifugation, eIF2B complex assembly, eIF2Bα E198K HEK293T lysate. The format is biochemical. The protocol:
as §3

Experiment [5] has as its target T5, eIF2B decamer in eIF2Bα^V183F HEK293T lysate (Homo sapiens, UniProt P49770+Q14232+Q9UI10, V183F).
T5 construct: endogenous in cells
Description: Sucrose gradient centrifugation, eIF2B complex assembly, eIF2Bα V183F HEK293T lysate. Type of experiment: biochemical. The settings on record: 500 nM ISRIB, 200 μM F6P. The procedure: as §3

Experiment [6] concerns the target T6, recombinant eIF2B(βδγε) ± eIF2Bα2 (Homo sapiens, UniProt P49770+Q14232+Q9UI10).
T6 construct: made in house; host or cells: eIF2Bα: E. coli BL21(DE3)
In words: Size-exclusion chromatography of recombinant eIF2B(βδγε) with or without eIF2Bα. Type of experiment: biochemical. Conditions: SEC, recombinant eIF2B(βδγε) + eIF2Bα2; 500 nM ISRIB, 200 μM F6P. The procedure:
(§4) Purified proteins were thawed and centrifuged at 20,000 × g, 10 min, 4 °C to remove any potential precipitate. Concentrations of eIF2B(βδγε) and eIF2Bα were normalized to 2 μM and 2.4 μM, respectively. 0.2 mL of each mixture was injected onto a Superose 6 Increase 10/300 column connected to an AKTA Pure 25 FPLC system (GE Healthcare). The system was run at 0.5 mL/min for 1 h using 25 mM HEPES, 200 mM KCl, 2 mM MgCl2, 1 mM DTT, pH 7.5 as the mobile phase. For conditions with ISRIB, the protein samples and mobile phase were supplemented with 500 nM ISRIB. For conditions with F6P, the protein samples and mobile phase were supplemented with 200 μM F6P. UV280 measurements were obtained directly by the instrument.
A general note: SEC sorts molecules by how far they enter the pores of the column.

In experiment [7] the target is T7, recombinant eIF2B(βδγε) ± eIF2Bα2 (Homo sapiens, UniProt P49770+Q9UI10).
T7 construct: made in house; host or cells: eIF2Bα: E. coli BL21(DE3)
The description is as above. Type of experiment: biochemical. The settings on record: SEC, recombinant eIF2B(βδγε); 500 nM ISRIB, 200 μM F6P. The procedure: as §4

The target of the next experiment is T8, eIF2Bα^V183F (Homo sapiens, UniProt Q14232, V183F).
T8 construct: made in house; host or cells: E. coli BL21(DE3)
T8 sequence (Q14232 1-305 V183F): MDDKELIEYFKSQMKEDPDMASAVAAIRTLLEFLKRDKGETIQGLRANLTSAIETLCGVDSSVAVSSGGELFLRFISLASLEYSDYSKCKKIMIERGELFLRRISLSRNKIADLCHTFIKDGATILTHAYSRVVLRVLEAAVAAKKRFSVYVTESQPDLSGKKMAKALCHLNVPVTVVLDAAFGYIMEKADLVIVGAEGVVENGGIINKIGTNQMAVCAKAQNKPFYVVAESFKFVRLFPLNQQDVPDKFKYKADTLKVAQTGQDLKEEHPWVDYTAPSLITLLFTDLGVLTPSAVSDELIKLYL
In words: Size-exclusion chromatography of recombinant eIF2Bα V183F, alone or with eIF2B(βδγε). Conditions: SEC, eIF2Bα V183F alone. The format is biochemical. The protocol:
as §4

Experiment [8] concerns the target T9, phospho-eIF2α binding to eIF2B (Homo sapiens, UniProt P49770+Q14232+Q9UI10).
T9 construct: endogenous in cells; host or cells: HEK293T with FLAG knock-in at the endogenous eIF2Bβ locus, treated with thapsigargin; lysate, anti-FLAG IP
Description: Phospho-eIF2α co-immunoprecipitation with FLAG-tagged eIF2B. Conditions: lysate of thapsigargin-treated HEK293T eIF2Bβ-FLAG cells; ligand 2 h at 4 °C. The procedure: HEK293T cells endogenously expressing eIF2Bβ with a C-terminal FLAG tag were maintained in DMEM High Glucose (Corning CellGro) supplemented with 10% FBS (Gibco) and antibiotic-antimycotic (Gibco). Upon reaching 90% confluency, cells were treated with either DMSO or 100 nM thapsigargin (Sigma) for 4 h. Cells were harvested and lysed in 25 mM HEPES, 150 mM KCl, 1% NP-40, 1 mM EDTA, pH 7.4 + Complete protease inhibitor cocktail (Roche) and PhosStop (Roche) on ice for 20 min. Lysates were cleared by centrifugation at 18,000 × g, 20 min, 4 °C, and transferred to Eppendorf tubes containing anti-FLAG M2 magnetic beads (Sigma). Mixtures were incubated overnight at 4 °C. To test the effect of ligands, these were added to the mixtures and incubated for an additional 2 h at 4 °C. Beads were washed three times with lysis buffer, eluted with 1× LDS buffer (Invitrogen), and subjected to SDS-PAGE followed by Western Blot with the indicated antibodies.

In experiment [9] the target is T10, eIF2Bα (Homo sapiens, UniProt Q14232).
T10 construct: made in house; host or cells: E. coli BL21(DE3)
T10 sequence (Q14232 1-305): T8 sequence (Q14232 1-305 V183F) with F183V
Description: Differential scanning fluorimetry (Protein Thermal Shift), eIF2Bα Tm. Type of experiment: binding. The settings on record: individual replicates Rep 1-4, control without metabolite about 64.1. The procedure:
The effect of metabolite binding on eIF2Bα Tm was assessed using the Protein Thermal Shift assay (Thermo Fisher), following manufacturer’s instructions. Briefly, reaction conditions for each 20 μL reaction were: 1.1 μg (1.5 μM) of eIF2Bα, 5 μl Thermal Shift buffer, 1X Thermal Shift dye, and metabolites in dose response. Reactions were run in 384-well format on a QuantStudio 6 Flex instrument (Thermo Fisher). The resulting melt curves were analyzed using Protein Thermal Shift Software, and eIF2Bα Tms for each condition were calculated by fitting to the Boltzmann function.
In general terms: In DSF a fluorescence change marks the thermal transition of the protein.

Experiment [10] has as its target T10, eIF2Bα. In words: Isothermal titration calorimetry, wild-type eIF2Bα. The settings on record: ITC, wild-type eIF2Bα. Type of experiment: binding. The protocol: Interactions between recombinant protein and sugar phosphates were conducted with a MicroCal PEAQ-ITC (Malvern Panalytical Inc.). Experiments were performed in 25 mM HEPES, 150 mM NaCl, pH 7.5 at 20 °C. The sugar phosphate concentration in the syringe was 1 mM or 1.5 mM, and ~3.5 μL aliquots were injected into cells containing 300 μL eIF2Bα or eIF2B(βδγε) at a concentration of 20–30 μM. The final titration curves were fitted using MicroCal ITC data analysis software, assuming a single binding site per monomer.

Another experiment deals with T11, eIF2B (Homo sapiens, UniProt P49770+Q14232+Q9UI10).
T11 construct: made in house; host or cells: eIF2Bα: E. coli BL21(DE3)
In words: eIF2B GEF activity assay, targeted, recombinant wild-type eIF2B. The format is biochemical. Conditions: 500 nM ISRIB, 200 μM F6P, 200 μM G1P. The protocol:
as §1, §2

For experiment [11], the system named is recombinant C. thermophilum eIF2Bα. The arrangement: method as in PMID 26384431. Conditions: ITC; cited from earlier work. Background: Isothermal titration calorimetry measures the heat released or taken up as one component is titrated into another.

Positions count from the first letter of the chain named. “And” between values parts separate entries of the source, which are not always exact repeats. Equal values may be shown once.

T3 sequence (Q14232 whole entry): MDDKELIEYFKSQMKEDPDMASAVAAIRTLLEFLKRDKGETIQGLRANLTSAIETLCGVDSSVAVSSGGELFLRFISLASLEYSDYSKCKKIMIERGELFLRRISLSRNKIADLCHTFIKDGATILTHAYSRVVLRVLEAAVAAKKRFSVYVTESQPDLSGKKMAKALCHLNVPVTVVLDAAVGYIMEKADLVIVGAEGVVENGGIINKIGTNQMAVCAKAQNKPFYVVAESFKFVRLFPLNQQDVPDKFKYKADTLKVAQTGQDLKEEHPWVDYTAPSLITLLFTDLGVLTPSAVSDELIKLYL
T3 sequence (P49770 whole entry): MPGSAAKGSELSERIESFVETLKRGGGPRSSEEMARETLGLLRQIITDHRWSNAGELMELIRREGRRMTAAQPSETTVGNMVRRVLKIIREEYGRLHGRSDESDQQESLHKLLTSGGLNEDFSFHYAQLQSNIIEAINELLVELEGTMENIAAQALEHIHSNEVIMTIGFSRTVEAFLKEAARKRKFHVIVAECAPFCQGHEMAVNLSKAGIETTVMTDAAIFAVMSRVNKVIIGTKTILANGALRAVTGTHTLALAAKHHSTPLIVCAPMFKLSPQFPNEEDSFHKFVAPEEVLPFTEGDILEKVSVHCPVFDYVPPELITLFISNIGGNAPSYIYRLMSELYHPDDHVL
T3 sequence (Q9UI10 whole entry): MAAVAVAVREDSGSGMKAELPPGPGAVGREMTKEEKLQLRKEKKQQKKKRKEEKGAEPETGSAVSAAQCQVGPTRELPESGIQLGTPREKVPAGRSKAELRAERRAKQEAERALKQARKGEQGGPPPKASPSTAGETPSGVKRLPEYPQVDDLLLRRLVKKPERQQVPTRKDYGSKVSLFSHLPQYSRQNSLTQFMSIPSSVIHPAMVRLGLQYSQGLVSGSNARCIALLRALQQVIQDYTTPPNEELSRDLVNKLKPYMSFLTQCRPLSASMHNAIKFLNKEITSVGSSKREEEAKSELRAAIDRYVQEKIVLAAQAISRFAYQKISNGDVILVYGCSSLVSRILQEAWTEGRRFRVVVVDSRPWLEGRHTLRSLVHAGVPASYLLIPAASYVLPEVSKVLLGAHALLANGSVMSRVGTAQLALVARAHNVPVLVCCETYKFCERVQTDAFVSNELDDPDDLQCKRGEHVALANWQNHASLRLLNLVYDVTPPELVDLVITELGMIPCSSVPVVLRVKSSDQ
T3 sequence (Q9NR50 whole entry partner): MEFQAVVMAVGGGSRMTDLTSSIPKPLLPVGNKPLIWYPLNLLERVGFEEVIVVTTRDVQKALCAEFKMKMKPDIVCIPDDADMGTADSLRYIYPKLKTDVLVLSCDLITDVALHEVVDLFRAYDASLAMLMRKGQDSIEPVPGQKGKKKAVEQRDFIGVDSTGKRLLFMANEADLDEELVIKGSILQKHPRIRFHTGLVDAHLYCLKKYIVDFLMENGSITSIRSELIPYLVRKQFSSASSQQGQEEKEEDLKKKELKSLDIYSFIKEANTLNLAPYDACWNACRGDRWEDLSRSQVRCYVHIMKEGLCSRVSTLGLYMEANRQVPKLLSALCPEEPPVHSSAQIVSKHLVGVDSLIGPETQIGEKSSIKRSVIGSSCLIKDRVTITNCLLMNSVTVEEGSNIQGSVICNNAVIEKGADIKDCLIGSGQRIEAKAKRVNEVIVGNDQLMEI
T3 sequence (Q13144 whole entry partner): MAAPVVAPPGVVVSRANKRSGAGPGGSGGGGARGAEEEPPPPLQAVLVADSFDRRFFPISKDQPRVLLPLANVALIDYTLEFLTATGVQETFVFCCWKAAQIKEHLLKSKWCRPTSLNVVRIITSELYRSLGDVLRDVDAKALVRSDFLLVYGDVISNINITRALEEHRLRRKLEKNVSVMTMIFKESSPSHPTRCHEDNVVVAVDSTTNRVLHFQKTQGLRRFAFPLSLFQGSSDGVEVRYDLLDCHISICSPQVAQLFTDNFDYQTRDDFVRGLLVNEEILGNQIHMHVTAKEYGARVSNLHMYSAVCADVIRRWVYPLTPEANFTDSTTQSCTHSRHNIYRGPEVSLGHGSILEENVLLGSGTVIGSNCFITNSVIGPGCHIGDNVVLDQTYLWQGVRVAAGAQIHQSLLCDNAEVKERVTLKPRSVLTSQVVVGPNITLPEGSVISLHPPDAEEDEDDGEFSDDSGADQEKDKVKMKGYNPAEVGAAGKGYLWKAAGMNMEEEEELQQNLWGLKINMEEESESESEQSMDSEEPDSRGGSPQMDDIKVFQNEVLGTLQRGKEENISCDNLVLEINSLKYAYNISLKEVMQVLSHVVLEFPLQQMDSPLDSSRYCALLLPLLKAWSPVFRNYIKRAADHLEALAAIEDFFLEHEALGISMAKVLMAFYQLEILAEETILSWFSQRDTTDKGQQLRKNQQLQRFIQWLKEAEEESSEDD
T2 sequence (Q14232 whole entry E198K): as the sequence (Q14232 whole entry) above, with E198K counted along it
T2 sequence (P49770 whole entry): as the sequence (P49770 whole entry) above
T2 sequence (Q9UI10 whole entry): as the sequence (Q9UI10 whole entry) above
T2 sequence (Q9NR50 whole entry partner): as the sequence (Q9NR50 whole entry partner) above
T2 sequence (Q13144 whole entry partner): as the sequence (Q13144 whole entry partner) above

Regarding `O=C(COc1ccc(Cl)cc1)NC1CCC(NC(=O)COc2ccc(Cl)cc2)CC1` (stereo not drawn) [ISRIB, reference compound], the “effect on GEF activity of WT lysate” value in experiment [1] is given as “stimulated”. Further, in experiment [2], the “effect on GEF activity of eIF2Bα E198K lysate” value is recorded as “boosted”. In addition, the “eIF2B decamer formation (migration of eIF2Bα and eIF2Bδ)” value in [3] is “formation of the decameric holoenzyme”. Also, the eIF2B decamer formation result is given as “produced a shift to the decameric form” in experiment [4] and “promoted decamer formation at comparable levels” in experiment [5]. Also, the “complex formation in the presence of eIF2Bα” value in experiment [6] was “enhanced formation”. In [7], the “complex formation in the absence of eIF2Bα” value is given as “enhanced formation of an (βδγε)2 octamer”. Also, the “monomer-to-dimer shift of eIF2Bα V183F” value on eIF2Bα^V183F is “had no effect”. In addition, in experiment [8], the “co-immunoprecipitation of phospho-eIF2α with FLAG-tagged eIF2B” value is “significantly disrupted”.
For `O=P(O)(O)O[C@H]1O[C@H](CO)[C@@H](O)[C@H](O)[C@H]1O` [G1P, glucose-1-phosphate], the “Tm of eIF2Bα” value on eIF2Bα [9] (0.33 mM metabolite) was 64.9734 °C and 64.7812 °C and 64.8751 °C and 63.7923 °C; at eIF2Bα [9] (1 mM metabolite), 65.6948 °C and 65.7116 °C and 65.1967 °C and 64.0445 °C; at eIF2Bα [9] (3.3 mM metabolite) it was 65.6535 °C and 64.9673 °C and 65.2055 °C and 64.2208 °C; at eIF2Bα [9] (10 mM metabolite), 65.8625 °C and 65.8106 °C and 65.498 °C and 64.4559 °C. Also, the “interaction with eIF2Bα” value at eIF2Bα [10] is “did not interact”. The “effect on GEF activity of recombinant wild-type eIF2B” value at eIF2B is “an inactive metabolite in the enzymatic assay”. The “eIF2B decamer formation (migration of eIF2Bα and eIF2Bδ)” value in experiment [3] is on record as “did not affect the migration of eIF2B subunits”.
Regarding `Nc1nc2c(ncn2[C@@H]2O[C@H](COP(=O)(O)O)[C@@H](O)[C@H]2O)c(=O)[nH]1` [GMP], the “Tm of eIF2Bα” value at eIF2Bα [9] (0.33 mM metabolite) is 65.0444 °C and 64.6931 °C and 64.6421 °C and 63.969 °C; at eIF2Bα [9] (1 mM metabolite), 65.9427 °C and 65.8956 °C and 65.7456 °C and 64.3903 °C; on eIF2Bα [9] (3.3 mM metabolite), 65.9427 °C and 65.7951 °C and 65.7602 °C and 64.8164 °C; on eIF2Bα [9] (10 mM metabolite) it was 66.5064 °C and 66.3635 °C and 66.1504 °C and 64.9333 °C. In experiment [11], the “binding to C. thermophilum eIF2Bα” value is reported as “binding”.
